Values quoted from earlier work in US10253031B2, “Stable pemetrexed arginine salt and compositions comprising it” (SYNTHON B.V., priority 2013, dated 2019).
Counter-ions that a name gives are not always drawn.

Settings: background statement

Solubility in water	SMILES
soluble in water	Nc1nc2[nH]cc(CCc3ccc(C(=O)N[C@@H](CCC(=O)O)C(=O)O)cc3)c2c(=O)[nH]1 [Disodium salt of pemetrexed]
sparingly soluble	Nc1nc2[nH]cc(CCc3ccc(C(=O)N[C@@H](CCC(=O)O)C(=O)O)cc3)c2c(=O)[nH]1 [pemetrexed diacid, N-[4-[2-(2-amino-4,7-dihydro-4-oxo-1H-pyrrolo [2,3-d]pyrimidin-5-yl)ethyl]benzoyl]-L-glutamic acid]
